Each block holds one compound with its values, some of them ahead of it.
Assays:
[1] = Partition ratio between Kcat (for beta lactamase) and Kinact (for beta lactamase) was determined
[2] = test system: Beta-lactamase TEM (Escherichia coli); experiment: Effect on rate of recovery of TEM-2 beta lactamase from transient inhibition
[3] = target: Beta-lactamase (Enterobacter cloacae) (UniProt P05364)
Description: K2 for inactivation of TEM-1 beta-lactamase

[4] = target: Beta-lactamase (Enterobacter cloacae) (UniProt P05364); remark: listed apart in the source
Description: Ks for inactivation of TEM-1 beta-lactamase

[5] = target: Beta-lactamase (Enterobacter cloacae) (UniProt P05364); remark: listed apart in the source
Description: K3 for inactivation of TEM-1 beta-lactamase

[6] = Partition ratio between Kcat and Kinact was determined
[7] = target: Beta-lactamase (Enterobacter cloacae) (UniProt P05364); remark: listed apart in the source
Description: Kcat for inactivation of TEM-1 beta-lactamase

Beta-lactamase (Enterobacter cloacae), sequence (P05364 21-381 limits assumed): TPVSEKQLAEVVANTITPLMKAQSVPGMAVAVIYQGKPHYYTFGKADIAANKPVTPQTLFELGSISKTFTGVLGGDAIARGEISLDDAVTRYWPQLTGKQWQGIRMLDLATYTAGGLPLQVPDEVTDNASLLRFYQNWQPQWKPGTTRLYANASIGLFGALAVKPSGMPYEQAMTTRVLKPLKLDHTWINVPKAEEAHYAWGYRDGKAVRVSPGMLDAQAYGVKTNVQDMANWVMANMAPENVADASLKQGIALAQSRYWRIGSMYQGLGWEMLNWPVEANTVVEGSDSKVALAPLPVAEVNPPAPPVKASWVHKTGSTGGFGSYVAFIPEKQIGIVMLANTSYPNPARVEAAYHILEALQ

Ratio [1]: 390
SMILES: C/C=C1\O[C@@H]2CC(=O)N2[C@H]1C(=O)O

Rate of recovery [2]: 0.002 s⁻¹
SMILES: O=C1C[C@H]2O/C(=C\CO)[C@H](CO)N12

K2 [3]: 42 s⁻¹
Ks [4]: 11.6 µM
K3 [5]: 10 s⁻¹
Ratio [6]: 3.7e+06
k cat [7]: 8 s⁻¹
SMILES: O=C(O)[C@H]1C(CCO)O[C@@H]2CC(=O)N21 (some centres not stated)
